One experiment has as its system A549. Briefly: cells. To be noted: Homo sapiens, A549, 96 h, read-out: Anti-proliferation IC50 A549.
The next experiment relates to Huh-7. The experiment is described as follows: MTT cell proliferation assay, Huh-7. Format: cell-based. Particulars: tumor cells with normal FGFR expression (Huh-7, A549 of Table 2). In general terms: Tetrazolium dyes change colour on reduction, which living cells bring about.
The next experiment has as its target T1, FGFR3 (Homo sapiens, UniProt P22607).
T1 construct: made in house; host or cells: Escherichia coli
The experiment is described as follows: HTRF enzyme activity test, FGFR3. It is filed as biochemical. Background: Time-resolved FRET reads energy transfer from a long-lived donor to a nearby acceptor.

T1 sequence (P22607 23-806): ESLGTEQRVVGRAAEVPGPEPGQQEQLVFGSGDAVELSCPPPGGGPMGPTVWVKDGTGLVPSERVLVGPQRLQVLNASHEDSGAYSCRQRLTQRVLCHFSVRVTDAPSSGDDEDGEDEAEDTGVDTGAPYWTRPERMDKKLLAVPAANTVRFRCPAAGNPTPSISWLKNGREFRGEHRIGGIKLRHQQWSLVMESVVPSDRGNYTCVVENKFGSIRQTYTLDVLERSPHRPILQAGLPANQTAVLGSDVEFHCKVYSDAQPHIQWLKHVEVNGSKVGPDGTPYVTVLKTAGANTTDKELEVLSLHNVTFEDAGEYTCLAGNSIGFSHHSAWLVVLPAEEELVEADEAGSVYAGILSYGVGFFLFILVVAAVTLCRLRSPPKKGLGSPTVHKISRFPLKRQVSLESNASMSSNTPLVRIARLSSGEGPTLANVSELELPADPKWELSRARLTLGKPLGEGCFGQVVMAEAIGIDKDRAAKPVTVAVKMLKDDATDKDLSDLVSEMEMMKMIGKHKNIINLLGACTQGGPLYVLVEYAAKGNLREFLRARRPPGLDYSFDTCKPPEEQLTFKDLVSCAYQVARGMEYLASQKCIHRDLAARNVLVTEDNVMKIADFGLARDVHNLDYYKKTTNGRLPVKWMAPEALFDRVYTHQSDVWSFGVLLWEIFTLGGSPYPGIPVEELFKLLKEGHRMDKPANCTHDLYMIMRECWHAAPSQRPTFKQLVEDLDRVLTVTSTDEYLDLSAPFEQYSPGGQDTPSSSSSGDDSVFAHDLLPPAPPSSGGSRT
Procedure for FGFR3: In the present disclosure, the homogeneous time-resolved fluorescence (HTRF) technology was used to evaluate an inhibitory effect of a compound on the four subtypes FGFR1, FGFR2, FGFR3, and FGFR4. FGFR1, FGFR2, FGFR3, and FGFR4 prokaryotic expression vectors were first constructed; and when the prokaryotic expression vectors were identified as correct, FGFR proteins were expressed and purified on a large scale in an Escherichia coli (E. coli) system, and protein concentrations were determined. Resulting proteins were stored in aliquots. Before an enzyme activity test was started, cisbio HTRF KinEA (62TK0PEB) was used to pre-dilute each component required in an enzyme activity system with an enzyme activity buffer to a required working concentration. A 384-well plate (66PL384025) was prepared, 5 μL of a protein solution, 1 μL of a compound, and 2 μL of a substrate were added to each well, and 2 μL of ATP was finally added to initiate a reaction. Three parallel experiments were set for each concentration. […] The 384-well plate was sealed and incubated at room temperature for about 1 h. […] Finally, the TECAN infinite M1000PRO multi-function microplate reader was used to detect a fluorescence signal, an inhibition rate was calculated, and an IC50 value was fitted with GraphPad Prism 7.0.

Consider `COc1cc(OC)cc(-c2nn(CCCCCN3CCN(C(=O)/C=C/C(F)(F)F)CC3)c3ncnc(N)c23)c1` [Compound 36], for which, in the experiment with A549, the IC50 was > 10 µM. In the experiment with Huh-7, the “inhibitory effect on tumor cells with normal FGFR expression (in words)” value is reported as “no obvious inhibitory effect”.
Take `C=CC(=O)N1CCN(CCCCCn2nc(-c3cccc(OCc4ccccc4)c3)c3c(N)ncnc32)CC1` [Compound 26]: the IC50 against FGFR3 was > 5000 nM.

The values above are taken from patent US20230159537A1, “COMPOUND, PREPARATION METHOD THEREOF, AND USE THEREOF IN PREPARATION OF ANTI-CANCER DRUG” (TIANJIN JIKUN MEDICAL TECHNOLOGY CO., LTD., priority 2020, published 2023).
